According to patent US20120308538A1, “PREVENTING SPOILAGE IN ALCOHOL FERMENTATIONS” (priority 2011, published 2012):
Bridges are numbered along the chain shown (N, C = ends). Where no end group is shown, it is not given here.

Assays:
[1] = system: Lactobacillus brevis 1105; experiment: HBD-3 activity in beer fermentations: brew samples seeded with bacteria incubated with HBD-3; format: cell-based; details: HBD-3 5 μg/mL; day 14 brew samples; seeded day 6 at 10^2 and 10^4 cfu/ml; two independent fermentations
Lb. brevis = experiment: In situ antimicrobial activity of HBD-3 secreted from yeast strains under fermentation conditions; format: cell-based, Lactobacillus brevis; details: summary statement, spoilage bacteria
Protocol: Yeast strains were grown up from single colonies in 3 mL YEP-Maltose medium (YEPM) and expanded to 2 liters. 40% (w/v) wort was reconstituted in water from spray-dried malt (Belgium) supplemented with 1 mM Zinc and autoclaved. The wort was diluted to give 1.02-1.060 g/mL density (10-15° Plato), and aerated. The yeast harvested from the 2 liter YEPM medium was resuspended in the diluted wort to give a yeast concentration of 1−1.5×10^7 cells/mL in either 250 ml sterile glass cylinders or in 2 L cylindro-conical EBC vessels. Wort was aerated once with compressed air, bubbling from the bottom of the vessel and anaerobic conditions were maintained by overlying with mineral oil. Flasks were incubated at a 45° angle, and incubated at 11-13° C. The density of the solution was measured every other day for 14 days. Samples were also used for the measurement of HBD-3 in the medium. At the end of the brewing period, yeast were recovered and stored for re-pitching if required. To test the efficacy of the HBD-3-yeast to prevent beer spoilage, individual beer spoilage bacterial strains (10^3/mL) were introduced along with pitching yeast. The surviving bacteria were quantified every other day along with viable yeast cells in the brew. The physical and chemical characteristics of the brew as well as taste and palatability were also measured with the help of healthy volunteers. […]

lager yeast CBMS = experiment: Cytotoxic effects of HBD-3 against the lager yeast; format: cell-based, Saccharomyces pastorianus; details: data not shown
Protocol: (§1) To test the activity of β-Defensin-3 against beer-spoiling bacteria, a defensin bioassay was carried out as described in the Methods section. Since our goal was to express HBD-3 in lager yeast, the cytotoxic effects of HBD-3 against the lager yeast CBMS was also examined. […] The minimum inhibitory concentration (MIC) values for HBD-3 against Lb. brevis and Lb. malefermentas were 5 μg/ml 0.5 μg/ml respectively. The LD-100 and MIC were lower than that required against other gram positive strains such as S. mutans, S. pyogenes, and […]. […] (data not shown).

Lactobacillus brevis = format: cell-based
Protocol: (§2) Cultures of Lactobacillus brevis L1055 or a control bacterium Staphylococcus aureus-were cultured at 37° C. overnight in MRS media (10 g litre^−1 universal peptone, 5 g litre^−1 meat extract, 5 g litre^−1 yeast extract, 20 g litre^−1 D(+)-glucose, 2 g litre^−1 K2HPO4, 2 g litre^−1 diammonium hydrogen citrate, 5 g litre NaOAc, 0.1 g litre^−1 MgSO4, 0.05 g litre^−1 MnSO4, final pH 6.5+/−0.2 at 37° C.). To prevent yeast growth in samples taken from fermentations seeded with L. brevis, the MRS medium was supplemented with cycloheximide at 10 μg/ml. The cultures were diluted to give a final densitiy of approximately 10^3 cells/mL. Synthetic HBD (0.5-10 μg/mL) was added to the bacterial cultures in a final volume of 100 μl volumes. CMBS cultures containing the pGREG, HBD-3-505V or HBD-3-506V were grown in overnight synthetic medium plus galactose (2%). The supernatants were concentrated (1000-fold) using molecular filtration membranes [Molecular Weight Cut Off (MWCO) 2000] ensuring all unspent sugar was removed from the medium. The concentrated supernatants were added to the bacterial cultures as described above. Following a two-hour incubation at 37° C., the number of bacterial colonies in each sample was determined following incubation on MRS plates containing cycloheximide at 37° C. for 48 hrs.
as §1

[2] = system: Lactobacillus malifermentus; format: cell-based
Protocol: as §2, §1

beer spoilage bacteria = experiment: Beer spoilage challenge in the bottled product (pilot scale 50 L fermentations); details: bottled product from CM-PGK-51 fermentation; no freeze-thawing cycle; larger than usual amounts of bacteria
Protocol: Pilot scale fermentations (50 L) were carried out using CM-PGK-51 as a starter culture.

[3] = synthetic HBD-3, two-hour incubation at 37° C.

## GIINTLQKYYCRVRGGRCAVLSCLPKEEQIGKCSTRGRKCCRRKK (disulfide 11-40, 18-33, 23-41 (inferred)) [HBD-3, human β-defensin-3]
[1]
  reduction of bacterial load in the wort: 100 fold
Lb. brevis
  reduction of bacterial load after quick freezing of the brew: 90-95%
Lager yeast CBMS
  HBD-3 concentrations at which lager yeasts were resistant: up to 100 μg/ml
Lactobacillus brevis; synthetic HBD-3
  minimum inhibitory concentration (MIC): 5 µg/mL
Lactobacillus brevis; [3]
  LD-100 (effectively killed at concentration): 10 µg/mL
[2]; synthetic HBD-3
  minimum inhibitory concentration (MIC): 0.5 µg/mL
[2]; [3]
  LD-100 (effectively killed at concentration): 1 µg/mL
Beer spoilage bacteria
  protective effects in beer spoilage challenge: did not reveal any protective effects
